Source: patent publication EP0516861A1, “PYRIDONECARBOXYLIC ACID DERIVATIVE” (BANYU PHARMACEUTICAL CO., LTD., priority 1990, dated 1992)
In brackets after ≈: the same amount, converted by molar mass. Where a name gives a salt, the structure may show the parent alone. Read-outs that look alike come from different tables or passages of the source.

What was measured:
L1210 cells = assay: In vitro cytotoxicity against L1210 murine leukemia (proliferation inhibition); format: cell-based; settings: Mus musculus, read-out: IC₅₀
Procedure: In this experiment, respective 2 × 10⁴ L1210 cells were cultured at 37°C under 5% CO₂ gas for 3 days in respective RPMI 1640 media containing a drug in various concentrations and 10 % fetal bovine serum, and the numbers of the cells after the culture were counted using a Coulter counter.

S.aureus JS1 = assay: In vitro antibacterial activity, agar plate dilution method; format: cell-based; settings: Staphylococcus aureus, β-lactamase-producing bacterium, MH agar, 10⁶CFU/ml, 16 hours at 37°C, read-out: Minimum inhibitory concentration (MIC) S.aureus JS1
Procedure: (§1) One platinum loopful portions of a test strain (quantity of each strain inoculated : 10⁶CFU/ml) cultured overnight in Mueller Hinton broth were inoculated respectively into MH agars containing an antibacterial agent in various concentrations. After 16 hours culture at 37°C, minimum inhibitory concentration (MIC: µg/ml) was measured.

S.aureus BB5769 = assay: as above; format: cell-based; settings: Staphylococcus aureus, MH agar, 10⁶CFU/ml, 16 hours at 37°C, read-out: Minimum inhibitory concentration (MIC) S.aureus BB5769
Procedure: as §1

S.aureus BB5703 = assay: as above; format: cell-based; settings: Staphylococcus aureus, MH agar, 10⁶CFU/ml, 16 hours at 37°C, read-out: Minimum inhibitory concentration (MIC) S.aureus BB5703
Procedure: as §1

DNA topoisomerase II = assay: DNA topoisomerase inhibition activity (DNA relaxation, agarose-gel electrophoresis); format: biochemical, murine; settings: relaxation of supercoiled pBR 322 plasmid DNA, 37°C for 10 minutes, enzyme from L1210 nuclei
Procedure: (§2) In this experiment, as enzymes were used DNA topoisomerase I and DNA topoisomerase II obtained by purifying an extract from the nuclei of cells of L1210 murine leukemia by column chromatography using hydroxylapatite and phosphocellulose, respectively, and as a DNA was used supercoiled pBR 322 plasmid DNA.
(§3) Measurement of inhibition effect was made by the method disclosed in a literature, i. e. Okura et al., Biochem. Biophys. Res. Comm. 157, 183 - 189, 1988, namely by warming at 37°C for 10 minutes the supercoiled DNA in DNA topoisomerase I or DNA topoisomerase II solutions containing a drug in various concentrations, and then detecting the resultant topology changes of the DNA as changes of the electrophoretic images in agarose - gel electrophoresis.

DNA topoisomerase I = biological target: T1, DNA topoisomerase I (Mus musculus, UniProt Q04750); assay: as above; format: biochemical, murine; settings: relaxation of supercoiled pBR 322 plasmid DNA, 37°C for 10 minutes, enzyme from L1210 nuclei; read-out: IC₅₀ DNA topoisomerase I (converted)
T1 construct: obtained by purifying an extract from the nuclei of cells of L1210 murine leukemia by column chromatography; endogenous in cells; host or cells: L1210 murine leukemia cells (nuclear extract, purified on hydroxylapatite / phosphocellulose columns)
T1 sequence (Q04750 1-767): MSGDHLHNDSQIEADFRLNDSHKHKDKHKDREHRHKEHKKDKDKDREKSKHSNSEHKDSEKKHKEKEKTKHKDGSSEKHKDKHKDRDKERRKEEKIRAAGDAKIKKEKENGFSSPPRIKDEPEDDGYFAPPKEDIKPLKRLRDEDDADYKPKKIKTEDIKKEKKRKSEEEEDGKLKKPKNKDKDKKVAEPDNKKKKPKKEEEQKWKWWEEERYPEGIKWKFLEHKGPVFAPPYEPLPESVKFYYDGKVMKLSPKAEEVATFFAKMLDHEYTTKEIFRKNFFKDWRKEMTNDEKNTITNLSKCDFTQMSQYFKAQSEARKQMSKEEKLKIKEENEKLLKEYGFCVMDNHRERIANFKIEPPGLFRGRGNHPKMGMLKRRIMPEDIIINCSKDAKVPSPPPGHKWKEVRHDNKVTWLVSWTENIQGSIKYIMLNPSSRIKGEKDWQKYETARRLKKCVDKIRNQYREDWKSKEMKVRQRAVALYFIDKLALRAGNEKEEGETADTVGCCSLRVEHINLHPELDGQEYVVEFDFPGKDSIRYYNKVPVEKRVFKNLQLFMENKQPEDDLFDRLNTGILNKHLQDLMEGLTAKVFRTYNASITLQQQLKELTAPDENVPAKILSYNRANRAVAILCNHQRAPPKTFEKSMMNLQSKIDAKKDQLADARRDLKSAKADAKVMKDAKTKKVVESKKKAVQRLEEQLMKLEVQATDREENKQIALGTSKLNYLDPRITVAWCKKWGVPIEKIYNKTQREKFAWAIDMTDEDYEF
Procedure: as §2, §3

L1210 = assay: Life-span prolonging effect on L1210 leukemia-bearing mice; format: in vivo, CDF₁ mice; settings: for effect at an administration quantity of 0.02 mg/kg: life-span prolongation, 0.02 mg/kg intraperitoneal
Procedure: (§4) In this experiment, 10⁶ L1210 cells or 10⁴ P388 cells were intraperitoneally transplanted into CDF₁ mice (♀, 5 weeks old), a drug in the various concentrations was intraperitoneally injected once a day for continuous 10 days from the day after the transplantation, and survival periods after the tumor transplantation were recorded.

P388 = assay: Life-span prolonging effect on P388 leukemia-bearing mice; format: in vivo, CDF₁ mice
Procedure: as §4

P388/V = assay: Proliferation inhibition, drug-sensitive P388 cells (MTT method); format: cell-based, murine; settings: Mus musculus, P388, 72 h, 3 days culture, read-out: IC₅₀ P388/V
Procedure: (§5) Proliferation inhibition effects againt P388/multiple drug - resistant cells were measured using vincristine and adriamycin as comparative compounds.
(§6) In this experiment, a drug - sensitive strain (P388/S) of a murine leukemia cell P388 and a drug - resistant strain (P388/VCR, T. Turuo, H. Iida, S. Tsukagoshi, et al., Cancer Research 42, 4730 - 4733, 1982) were suspended respectively in RPMI 1640 media containing a drug in various concentrations, 10 % fetal bovine serum and 20 µ M β - mercaptoethanol, respectively, and seeded in a 96 - well microtest plate in a number of 10⁴ cells/well, and cultured at 37°C under CO₂ gas for 3 days. Calculation of 50% proliferation inhibition concentration (IC₅₀) was made by the MTT method (M. C. Alley, D. A. Scudiero, A. Monks, et al., Cancer Research 48, 589 - 601, 1988).

P388/VCR = assay: Proliferation inhibition, multiple drug-resistant P388 cells (MTT method); format: cell-based, murine; settings: Mus musculus, 72 h, 3 days culture, read-out: IC₅₀ P388/VCR
Procedure: as §5, §6

[1] = 72 h, L1210 cells, cultured 3 days, Coulter counter
[2] = dose 0.020 mg/kg intraperitoneally once a day for 10 days
[3] = dose 0.078 mg/kg intraperitoneally once a day for 10 days
[4] = dose 0.313 mg/kg intraperitoneally once a day for 10 days

SMILES: Cl.Nc1c(F)c(N2C[C@H]3CC=C[C@@H](N)[C@H]3C2)c(F)c2c1c(=O)c(C(=O)O)cn2C1CC1 (single isomer, unassigned) [Compound of Ex.13, (-) - 5 - amino - 7 - [(1R*, 2R*, 6S*) 2 - amino - 8 - azabicyclo [4.3.0]non - 3 - en - 8 - yl] - 1 - cyclopropyl - 6, 8 - difluoro - 1, 4 - dihydro - 4 - oxo - 3 - quinolinecarboxylic acid hydrochloride]
- IC50 (L1210 cells; [1]): 1.5 ng/mL
- MIC (S.aureus JS1): < 6 ng/mL
- MIC (S.aureus BB5769): < 6 ng/mL
- MIC (S.aureus BB5703): < 6 ng/mL
- IC₅₀ DNA topoisomerase II (DNA topoisomerase II): 4 µg/mL
- IC50 (DNA topoisomerase I): 221 µM

SMILES: N[C@@H]1C=CC[C@@H]2CN(c3c(F)cc4c(=O)c(C(=O)O)cn(C5CC5)c4c3F)C[C@@H]21.O=C(O)C(F)(F)F (relative stereo) [Compound of Ex.1, 7 - [(1R*, 2R*, 6S*) - 2 - amino - 8 - azabicyclo [4.3.0]non - 3 - en - 8 - yl] - 1 - cyclopropyl - 6, 8 - difluoro - 1, 4 - dihydro-4 - oxo - 3 - quinolinecarboxylic acid trifluoroacetate]
- MIC (S.aureus JS1): < 6 ng/mL
- MIC (S.aureus BB5769): < 6 ng/mL
- MIC (S.aureus BB5703): < 6 ng/mL

SMILES: CN[C@@H]1C=CC[C@@H]2CN(c3c(F)cc4c(=O)c(C(=O)O)cn(C5CC5)c4c3F)C[C@@H]21.O=C(O)C(F)(F)F (relative stereo) [Compound of Ex.2, 1 - cyclopropyl - 6, 8 - difluoro - 1, 4 - dihydro - 7 - [(1R*, 2R*, 6S*) - 2 - (N - methylamino) - 8 - azabicyclo [4.3.0]non - 3 - en - 8 - yl] - 4 - oxo - 3 - quinolinecarboxylic acid trifluoroacetate]
- MIC (S.aureus JS1): < 6 ng/mL
- MIC (S.aureus BB5769): < 6 ng/mL
- MIC (S.aureus BB5703): < 6 ng/mL

SMILES: COc1cc([C@@H]2c3cc4c(cc3[C@@H](O[C@@H]3O[C@@H]5CO[C@@H](C)O[C@H]5[C@H](O)[C@H]3O)[C@H]3COC(=O)[C@H]23)OCO4)cc(OC)c1O [Etoposide, etoposide, reference compound]
- Mean survival days L1210 (L1210; [2]): 14.2 days
- T/C % L1210 (L1210; [2]): 104%
- Mean survival days L1210 (L1210; [3]): 22.8 days
- T/C % L1210 (L1210; [3]): 166%
- Mean survival days L1210 (L1210; [4]): 31.4 days
- T/C % L1210 (L1210; [4]): 229%
- effect at an administration quantity of 0.02 mg/kg (L1210): no effect
- IC50 (L1210 cells; [1]): 21 ng/mL (≈ 0.0357 µM)
- Mean survival days P388 (P388; [2]): 12.8 days
- T/C % P388 (P388; [2]): 114%
- Mean survival days P388 (P388; [3]): 16.6 days
- T/C % P388 (P388; [3]): 148%
- Mean survival days P388 (P388; [4]): 22.2 days
- T/C % P388 (P388; [4]): 198%

SMILES: COc1cccc2c1C(=O)c1c(O)c3c(c(O)c1C2=O)C[C@@](O)(C(=O)CO)C[C@@H]3O[C@H]1C[C@H](N)[C@H](O)[C@H](C)O1 [Adriamycin, adriamycin]
- IC50 (P388/V): 21 ng/mL (≈ 0.0386 µM)
- IC50 (P388/VCR): 63 ng/mL (≈ 0.116 µM)

SMILES: CC[C@@]1(O)C(=O)OCc2c1cc1n(c2=O)Cc2cc3ccccc3nc2-1 [Camptothecin, camptothecin, reference compound]
- IC50 (L1210 cells; [1]): 40 ng/mL (≈ 0.115 µM)
- IC₅₀ DNA topoisomerase II (DNA topoisomerase II): > 10 µg/mL

SMILES: CC[C@]1(O)C[C@H]2CN(CCc3c([nH]c4ccccc34)[C@@](C(=O)OC)(c3cc4c(cc3OC)N(C=O)[C@H]3[C@@](O)(C(=O)OC)[C@H](OC(C)=O)[C@]5(CC)C=CCN6CC[C@]43[C@@H]65)C2)C1 [Vincristine, vincristine]
- IC50 (P388/V): 0.32 ng/mL (≈ 0.000388 µM)
- IC50 (P388/VCR): 19 ng/mL (≈ 0.023 µM)

SMILES: COc1c(N2C[C@H]3CC=C[C@@H](N)[C@H]3C2)c(F)cc2c(=O)c(C(=O)O)cn(C3CC3)c12 (relative stereo) [Compound of Ex.11, (-) - 7 - [(1R*, 2R*, 6S*) - 2 - amino - 8 - azabicyclo [4.3.0]non - 3 - en - 8 - yl] - 1 - cyclopropyl - 6 - fluoro - 1, 4 - dihydro - 8 - methoxy - 4 - oxo - 3 - quinolinecarboxlic acid hydrochloride]
- Mean survival days L1210 (L1210; [2]): 25.8 days
- T/C % L1210 (L1210; [2]): 188%
- Mean survival days L1210 (L1210; [3]): > 50.8 days
- T/C % L1210 (L1210; [3]): 371%
- Mean survival days L1210 (L1210; [4]): 16.4 days
- T/C % L1210 (L1210; [4]): 120%
- effect at an administration quantity of 0.02 mg/kg (L1210): effective
- IC50 (L1210 cells; L1210, 72 h): 32 ng/mL
- IC₅₀ DNA topoisomerase II (DNA topoisomerase II): 2 µg/mL
- IC50 (DNA topoisomerase I): 3020 µM
